Laboratory results reported in patent US20050101595A1, “N-containing cycloalkyl-substituted amino-thiazole derivatives and pharmaceutical compositions for inhibiting cell proliferation and methods for their use” (PFIZER INC., priority 2003, published 2005).
Like-named read-outs stand apart in the source and are kept apart here.

Key:
CDK2/Cyclin A = CDK2/Cyclin A (Homo sapiens, UniProt P24941); assay: Inhibition of CDK2/Cyclin A Retinoblastoma Kinase Activity; format: biochemical; details: for Ki: apparent Ki, CDK2/proteolyzed cyclin A, Rb fragment substrate, 25 μM ATP
Outline: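 CDK2 (10 or 19 nM), insect-cell expressed, gel-filtration purified with truncated cyclin A; Rb fragment substrate; 25 μM ATP; 10 mM HEPES pH 7.4, 10 mM MgCl2; 30° C, 60 or 75 min; EDTA stop; phosphocellulose/nitrocellulose capture, phosphorimager. % inhibition vs DMSO control, no-enzyme background subtracted.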

[1] = target: human CDK4 and genetically truncated (1-264) cyclin D3 (Homo sapiens, UniProt P11802); assay: Inhibition of CDK4/Cyclin D Retinoblastoma Kinase Activity; format: biochemical; details: for Ki: apparent Ki, CDK4/truncated cyclin D3, Rb fragment substrate, 25 μM ATP
Outline: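 The enzyme complex (5 nM), expressed in co-infected insect cells, was incubated with recombinant Rb fragment, 25 μM radiolabelled ATP and 2% DMSO at 30 °C. Reactions were stopped with EDTA after 20 minutes, or 60 minutes for tight-binding inhibitors. Apparent Ki values came from competitive inhibition fits.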

HCT-116 cell line = assay: Inhibition of cell growth, tetrazolium salt (MTT) assay; format: cell-based; details: for IC50: Homo sapiens, HCT-116, 120 h, MTT, three to five days, read-out: HCT-116 IC50; for HCT-116 % Inhibition at 0.25 μM: 0.25 μM compound
Outline: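 Growth inhibition is scored relative to cells receiving only 0.5% (v/v) DMSO. Plated cells rest 4 h, then take compound for three to five days at 37° C; MTT reduction to formazan is read at 540 nm.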

[2] = 0.1 μM compound, HCT-116, Table 4
[3] = 0.1 μM compound, HCT-116, Table 3

Sequence of human CDK4 and genetically truncated (1-264) cyclin D3 (P11802 whole entry, the tested form may be a part): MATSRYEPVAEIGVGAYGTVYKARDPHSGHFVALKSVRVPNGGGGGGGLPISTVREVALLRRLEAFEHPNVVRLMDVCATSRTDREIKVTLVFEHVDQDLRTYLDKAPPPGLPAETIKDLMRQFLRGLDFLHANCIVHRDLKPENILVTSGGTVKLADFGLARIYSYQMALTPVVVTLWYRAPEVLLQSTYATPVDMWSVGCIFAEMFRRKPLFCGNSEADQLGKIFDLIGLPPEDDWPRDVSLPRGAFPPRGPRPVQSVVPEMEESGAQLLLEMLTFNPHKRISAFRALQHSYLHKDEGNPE
Sequence of human CDK4 and genetically truncated (1-264) cyclin D3 (P30281 1-264 partner): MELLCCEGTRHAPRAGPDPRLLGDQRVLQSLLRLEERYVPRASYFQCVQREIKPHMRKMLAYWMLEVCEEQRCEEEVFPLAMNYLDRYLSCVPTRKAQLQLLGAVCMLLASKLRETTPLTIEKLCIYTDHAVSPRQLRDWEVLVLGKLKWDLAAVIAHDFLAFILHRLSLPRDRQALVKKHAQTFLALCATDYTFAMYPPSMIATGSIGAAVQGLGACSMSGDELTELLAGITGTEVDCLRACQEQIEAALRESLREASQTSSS

| SMILES | Ki (CDK2/Cyclin A) [nM] | Ki [1] [nM] | IC50 (HCT-116 cell line; first HCT-116 column (c4)) [nM] | IC50 (HCT-116 cell line; second HCT-116 column (c5)) [nM] | CDK2 % Inhibition at 0.03 μM (CDK2/Cyclin A; 0.03 μM compound, Table 4) [%] | CDK4 % Inhibition at 0.03 μM ([1]; 0.03 μM compound, Table 4) [%] | HCT-116 % Inhibition at 0.1 μM (HCT-116 cell line; [2]) [%] | HCT-116 % Inhibition at 0.25 μM (HCT-116 cell line; HCT-116, Table 4) [%] | also measured |
| --- | --- | --- | --- | --- | --- | --- | --- | --- | --- |
| CN1CCN(S(=O)(=O)N2CCC(Nc3nc(N)c(C(=O)c4c(F)cccc4F)s3)CC2)CC1 [Example E3, {4-Amino-2-[1-(4-methyl-piperazine-1-sulfonyl)-piperidin-4-ylamino]-thiazol-5-yl}-(2,6-difluoro-phenyl)-methanone] | 12 | 5.4 | 330 | 780 |  |  |  |  |  |
| CCCCC(CC)COC(=O)N1CCC(Nc2nc(N)c(C(=O)c3c(F)cccc3F)s2)CC1 (stereo not drawn) [Example Q7] |  |  |  |  | −42 | 5 | 5 | 39 |  |
| CCOc1ccccc1C(=O)N1CCC(Nc2nc(N)c(C(=O)c3c(F)cccc3F)s2)CC1 [Example R119] |  |  |  |  |  |  |  |  | CDK2 % Inhibition at 0.03 μM (CDK2/Cyclin A; at 0.03 μM): 27%; CDK4 % Inhibition at 0.03 μM ([1]; at 0.03 μM): 31%; HCT-116 % Inhibition at 0.1 μM (HCT-116 cell line; HCT-116 cells, at 0.1 μM): 3%; HCT-116 5 Inhibition at 0.25 μM (HCT-116 cell line; HCT-116 cells): 53 |
| Nc1nc(NC2CCN(S(=O)(=O)CCCN3CCOCC3)CC2)sc1C(=O)c1c(F)cccc1F [Example K12, 1-(4-Amino-2-{1-[3-(morpholin-4-yl)propane-1-sulfonyl]-piperidin-4-ylamino}-thiazol-5-yl)-1-(2,6-difluoro-phenyl)-methanone.] | 6.7 | 4.7 | 600 | 5000 |  |  |  |  |  |
| Cc1ccc(C(=O)N2CCC(Nc3nc(N)c(C(=O)c4c(F)cccc4F)s3)CC2)cc1C [Example R141] |  |  |  |  |  |  |  |  | CDK2 % Inhibition at 0.03 μM (CDK2/Cyclin A; at 0.03 μM): 68%; CDK4 % Inhibition at 0.03 μM ([1]; at 0.03 μM): 82%; HCT-116 % Inhibition at 0.1 μM (HCT-116 cell line; HCT-116 cells, at 0.1 μM): 33%; HCT-116 5 Inhibition at 0.25 μM (HCT-116 cell line; HCT-116 cells): 77 |
| Nc1nc(NC2CCN(S(=O)(=O)c3ccc(Br)s3)CC2)sc1C(=O)c1c(F)cccc1F [Example F50, 1-{4-Amino-2-[1-(5-bromo-thiophene-2-sulfonyl)-piperidin4-ylamino]-thiazol-5-yl}1-(2,6-difluoro-phenyl)-methanone] | 1.1 | 3.2 | 280 | 2600 |  |  |  |  |  |
| Nc1nc(NC2CCN(S(=O)(=O)c3ccc(CNC(=O)c4ccc(Cl)cc4)s3)CC2)sc1C(=O)c1c(F)cccc1F [Example P66] |  |  |  |  |  |  |  |  | CDK2 % Inhibition at 0.03 μM (CDK2/Cyclin A; 0.03 μM compound, Table 3): 55%; CDK4 % Inhibition at 0.03 μM ([1]; 0.03 μM compound, Table 3): 57%; HCT-116 % Inhibition at 0.1 μM (HCT-116 cell line; [3]): 12%; HCT-116 % Inhibition at 0.25 μM (HCT-116 cell line; HCT-116, Table 3): 34% |
| Cc1cccc(C(=O)N2CCC(Nc3nc(N)c(C(=O)c4c(F)cccc4F)s3)CC2)c1 [Example Q25] |  |  |  |  | 30 | 60 | 31 | 85 |  |
| Nc1nc(NC2CCN(S(=O)(=O)c3ccc(Cl)c4nonc34)CC2)sc1C(=O)c1c(F)cccc1F [Example P75] |  |  |  |  |  |  |  |  | CDK2 % Inhibition at 0.03 μM (CDK2/Cyclin A; 0.03 μM compound, Table 3): 60%; CDK4 % Inhibition at 0.03 μM ([1]; 0.03 μM compound, Table 3): 79%; HCT-116 % Inhibition at 0.1 μM (HCT-116 cell line; [3]): 27%; HCT-116 % Inhibition at 0.25 μM (HCT-116 cell line; HCT-116, Table 3): 43% |
| Cc1cc(C)cc(C(=O)N2CCC(Nc3nc(N)c(C(=O)c4c(F)cccc4F)s3)CC2)c1 [Example D14, {4-Amino-2-[1-(3,5-dimethyl-benzoyl)-piperidin-4-ylamino]-thiazol-5-yl}-(2,6-difluoro-phenyl)-methanone] | 120 | 19 | 14 | 41 |  |  |  |  |  |

Further lines, with some results ahead:

| Ki (CDK2/Cyclin A) [nM] | Ki [1] [nM] | IC50 (HCT-116 cell line; first HCT-116 column (c4)) [nM] | IC50 (HCT-116 cell line; second HCT-116 column (c5)) [nM] | CDK2 % Inhibition at 0.03 μM (CDK2/Cyclin A; 0.03 μM compound, Table 4) [%] | CDK4 % Inhibition at 0.03 μM ([1]; 0.03 μM compound, Table 4) [%] | SMILES | HCT-116 % Inhibition at 0.1 μM (HCT-116 cell line; [2]) [%] | HCT-116 % Inhibition at 0.25 μM (HCT-116 cell line; HCT-116, Table 4) [%] | also measured |
| --- | --- | --- | --- | --- | --- | --- | --- | --- | --- |
|  |  |  |  | 20 | 50 | Nc1nc(NC2CCN(C(=O)c3cccnc3)CC2)sc1C(=O)c1c(F)cccc1F [Example Q80] | 10 | 27 |  |
|  |  |  |  | 32 | 76 | Nc1nc(NC2CCN(C(=O)c3ccc(Cl)cc3)CC2)sc1C(=O)c1c(F)cccc1F [Example Q27] | 4 | 40 |  |
